Counter-ions that a name gives are not always drawn. Like-named read-outs stand apart in the source and are kept apart here.
Key:
[1] = test system: HCT116 FOP control reporter cell line; experiment: HCT116 FOPFlash control reporter assay (FOP control vector, non-functional TCF elements); format: cell-based; conditions: HCT116 FOP control reporter cells, 36 hours incubation, luciferase expression
From the text: (§1) In a parallel approach, HCT116 cells were cotransfected with the FOP control vector and pcDNA3. The FOP vector is identical to the TOP construct, but it contains instead of functional TCF elements a randomized, non-functional sequence. For this transfection a stable transfected cell line was generated as well.

[2] = test system: HEK293 FOP control reporter cell line; experiment: HEK293 FOP control reporter assay; format: cell-based, human; conditions: read-out: HEK FOP IC50
Method: (§2) Measurement of luciferase expression was done as described for the constitutive active Wnt assay.
as §1, with “HEK293” for “HCT116”, “well, based on selection with Geneticin (1 mg/ml).” for “well.”

[3] = test system: constitutive active colorectal cancer cell (CRC) Wnt pathway; experiment: HCT116 TOPFlash cellular reporter assay (Super TopFlash luciferase), constitutive active Wnt pathway; format: cell-based; conditions: HCT116 TOP reporter cells, 36 hours incubation, luciferase expression
Method: In order to discover and characterize small molecules which inhibit the constitutive active colorectal cancer cell (CRC) Wnt pathway, a cellular reporter assay was employed. […] Stable transfectants were generated by cotransfection with pcDNA3 and selection of stable transfected cells with 1 mg/ml G418.

[4] = test system: wildtype Wnt pathway; experiment: HEK293 TOP reporter assay, wildtype Wnt pathway stimulated with Wnt-3a; format: cell-based, human
Method: as §2
In order to discover and characterize small molecules which inhibit the wildtype Wnt pathway, a cellular reporter assay was employed. […] Stable transfectants were generated by selection with 300 μg/ml Hygromycin.

[5] = Homo sapiens, HEK293, 16 h; read-out: HEK TOP OncoFlash IC50
[6] = HEK293 FOP control cells, EC50 concentration of recombinant Wnt-3a, 16 hours

Q: How did the IC50 [1] turn out when CC(C(=O)Nc1cc(C(=O)Nc2nnc(-c3ccccc3)s2)ccc1OC(F)(F)F)N1CCOCC1 (stereo not shown) [Example 57, 3-{[2-(morpholin-4-yl)propanoyl]amino}-N-(5-phenyl-1,3,4-thiadiazol-2-yl)-4-(trifluoromethoxy)benzamide] was run?
A: ≥ 50 µM

Q: And the IC50 ([2]; Homo sapiens, HEK293, 16 h)?
A: ≥ 50 µM

Q: With COc1ccc(NC(=O)c2ccc(-c3ccccc3)s2)cc1NC(=O)CN1CCOCC1 [Example 25, N-{4-methoxy-3-[(morpholin-4-ylacetyl)amino]phenyl}-5-phenylthiophene-2-carboxamide] as the compound, how does the IC50 ([1]; Homo sapiens, HCT-116, 36 h) read?
A: ≥ 50 µM

Q: What about the IC50 ([3]; Homo sapiens, HCT-116, 36 h) of the same compound?
A: 0.326 µM

Q: What about the IC50 ([2]; Homo sapiens, HEK293, 16 h) of the same compound?
A: 10 µM

Q: And the IC50 [4, 5]?
A: 0.09 µM

Q: What does the source list for CS(=O)(=O)Cc1ccc(C(=O)Nc2nnc(-c3ccccc3)s2)cc1NC(=O)C1(N2CCOCC2)CC1 [Example 47, 4-[(methylsulfonyl)methyl]-3-({[1-(morpholin-4-yl)cyclopropyl]carbonyl}amino)-N-(5-phenyl-1,3,4-thiadiazol-2-yl)benzamide]?
A: IC50 ([1]; Homo sapiens, HCT-116, 36 h): ≥ 50 µM; IC50 ([3]; Homo sapiens, HCT-116, 36 h): 0.0398 µM; IC50 ([2]; Homo sapiens, HEK293, 16 h): ≥ 50 µM; IC50 [4, 5]: 0.09 µM

Q: With CC(C(=O)Nc1cc(C(=O)Nc2nnc(-c3ccccc3)s2)ccc1OC(F)F)N1CCN(C)CC1 (stereo not shown) [Example 42, 4-(difluoromethoxy)-3-{[2-(4-methylpiperazin-1-yl)propanoyl]amino}-N-(5-phenyl-1,3,4-thiadiazol-2-yl)benzamide trifluoroacetate (1:1)] as the compound, how does the IC50 ([1]; Homo sapiens, HCT-116, 36 h) read?
A: ≥ 50 µM

Q: And the IC50 ([3]; Homo sapiens, HCT-116, 36 h)?
A: 0.242 µM

Q: What about the IC50 ([2]; Homo sapiens, HEK293, 16 h) of the same compound?
A: ≥ 50 µM

Q: And the IC50 ([4]; Homo sapiens, HEK293, 16 h, read-out: HEK TOP OncoFlash IC50)?
A: 0.106 µM

Q: For COc1ccc(C(=O)Nc2ccc(-c3ccccc3)nc2)cc1NC(=O)C1(N2CCOCC2)CC1 [Example 81, 4-methoxy-3-({[1-(morpholin-4-yl)cyclopropyl]carbonyl}amino)-N-(6-phenylpyridin-3-yl)benzamide], which IC50 ([1]; Homo sapiens, HCT-116, 36 h) is on record?
A: ≥ 50 µM

Q: What about the IC50 ([3]; Homo sapiens, HCT-116, 36 h) of the same compound?
A: 0.0231 µM

Q: And the IC50 ([2]; Homo sapiens, HEK293, 16 h)?
A: ≥ 50 µM

Q: What about the IC50 [4, 5] of the same compound?
A: 0.015 µM

Q: For COC(=O)c1ccc(C(=O)Nc2nnc(-c3ccccc3)s2)cc1NC(=O)CN1CCN(C)CC1 [Example 105, methyl 2-{[(4-methylpiperazin-1-yl)acetyl]amino}-4-[(5-phenyl-1,3,4-thiadiazol-2-yl)carbamoyl]benzoate], which IC50 ([1]; Homo sapiens, HCT-116, 36 h) is on record?
A: ≥ 50 µM

Q: What about the IC50 ([3]; Homo sapiens, HCT-116, 36 h) of the same compound?
A: 0.064 µM

Q: And the IC50 ([2]; Homo sapiens, HEK293, 16 h)?
A: ≥ 50 µM

Q: What about the IC50 [4, 5] of the same compound?
A: 0.3 µM

Q: Which IC50 ([1]; Homo sapiens, HCT-116, 36 h) does the source give for CC(C)(C)c1ccc(NC(=O)c2ccc(-c3ccccc3)s2)cc1NC(=O)CN1CCOCC1 [Example 19, N-{4-tert-butyl-3-[(morpholin-4-ylacetyl)amino]phenyl}-5-phenylthiophene-2-carboxamide] here?
A: 11 µM

Q: What about the IC50 ([3]; Homo sapiens, HCT-116, 36 h) of the same compound?
A: 0.0262 µM

Q: And the IC50 ([2]; Homo sapiens, HEK293, 16 h)?
A: ≥ 50 µM

Q: And the IC50 [4, 5]?
A: 0.99 µM

Q: For O=C(CN1CCOCC1)Nc1cc(C(=O)Nc2ccc(-c3ccccc3F)nc2)ccc1OC1CC1 [Example 133, 4-(cyclopropyloxy)-N-[6-(2-fluorophenyl)pyridin-3-yl]-3-[(morpholin-4-ylacetyl)amino]benzamide], which IC50 ([1]; Homo sapiens, HCT-116, 36 h) is on record?
A: ≥ 50 µM

Q: What about the IC50 ([3]; Homo sapiens, HCT-116, 36 h) of the same compound?
A: 0.0546 µM

Q: And the IC50 ([2]; Homo sapiens, HEK293, 16 h)?
A: ≥ 50 µM

Q: What about the IC50 [4, 5] of the same compound?
A: 0.13 µM

Q: What does the source list for O=C(Nc1nnc(-c2ccccc2)s1)c1ccc(OC2CC2)c(NC(=O)C2(N3CCOCC3)CC2)c1 [Example 159, 4-(cyclopropyloxy)-3-({[1-(morpholin-4-yl)cyclopropyl]carbonyl}amino)-N-(5-phenyl-1,3,4-thiadiazol-2-yl)benzamide]?
A: IC50 ([1]; Homo sapiens, HCT-116, 36 h): ≥ 50 µM; IC50 ([3]; Homo sapiens, HCT-116, 36 h): 0.0414 µM; IC50 ([2]; Homo sapiens, HEK293, 16 h): ≥ 50 µM; IC50 [4, 5]: 0.054 µM

Q: With O=C(CN1CCOCC1)Nc1cc(NC(=O)c2ccc(-c3ccccc3)nc2)ccc1OC(F)(F)F [Example 33, N-{3-[(morpholin-4-ylacetyl)amino]-4-(trifluoromethoxy)phenyl}-6-phenylnicotinamide] as the compound, how does the IC50 ([1]; Homo sapiens, HCT-116, 36 h) read?
A: ≥ 50 µM

Q: And the IC50 ([3]; Homo sapiens, HCT-116, 36 h)?
A: 0.111 µM

Q: And the IC50 ([2]; Homo sapiens, HEK293, 16 h)?
A: 7.4 µM

Q: And the IC50 [4, 5]?
A: 0.37 µM

Q: How did the IC50 [1] turn out when C[C@@H](C(=O)Nc1cc(C(=O)Nc2ccc(-c3ccccc3F)nc2)ccc1OC(F)(F)F)N1CCN(C)CC1 (single isomer, unassigned) [Example 65, N-[6-(2-fluorophenyl)pyridin-3-yl]-3-{[(2S)-2-(4-methylpiperazin-1-yl)propanoyl]amino}-4-(trifluoromethoxy)benzamide or N-[6-(2-fluorophenyl)pyridin-3-yl]-3-{[(2R)-2-(4-methylpiperazin-1-yl)propanoyl]amino}-4-(trifluoromethoxy)benzamide] was run?
A: ≥ 50 µM

Q: And the IC50 [2, 6]?
A: ≥ 50 µM

Q: Which results are given for “N-[6-(2-fluorophenyl)pyridin-3-yl]-3-{[(2S)-2-(4-methylpiperazin-1-yl)propanoyl]amino}-4-(trifluoromethoxy)benzamide or N-[6-(2-fluorophenyl)pyridin-3-yl]-3-{[(2R)-2-(4-methylpiperazin-1-yl)propanoyl]amino}-4-(trifluoromethoxy)benzamide [Example 66]”?
A: IC50 [1]: ≥ 50 µM; IC50 [3]: 0.011 µM; IC50 [2, 6]: ≥ 50 µM

Q: How did the IC50 ([2]; Homo sapiens, HEK293, 16 h) turn out when O=C(Nc1nnc(-c2ccccc2)s1)c1ccc(OC(F)(F)F)c(NC(=O)C2(N3CCOCC3)CC2)c1 [Example 50, 3-({[1-(morpholin-4-yl)cyclopropyl]carbonyl}amino)-N-(5-phenyl-1,3,4-thiadiazol-2-yl)-4-(trifluoromethoxy)benzamide] was run?
A: ≥ 50 µM

Q: How did the IC50 [2, 6] turn out when C[C@@H](C(=O)Nc1cc(C(=O)Nc2ccc(-c3ccccc3F)nc2)ccc1OC(F)(F)F)N1CCOCC1 (single isomer, unassigned) [Example 9, N-[6-(2-fluorophenyl)pyridin-3-yl]-3-{[(2S)-2-(morpholin-4-yl)propanoyl]amino}-4-(trifluoromethoxy)benzamide or N-[6-(2-fluorophenyl)pyridin-3-yl]-3-{[(2R)-2-(morpholin-4-yl)propanoyl]amino}-4-(trifluoromethoxy)benzamide] was run?
A: 8.2 µM

Q: How did the IC50 ([2]; Homo sapiens, HEK293, 16 h) turn out when CC(C(=O)Nc1cc(C(=O)Nc2nnc(-c3ccccc3)s2)ccc1OC(F)(F)F)N1CCN(C)CC1 (stereo not shown) [Example 58, 3-{[2-(4-methylpiperazin-1-yl)propanoyl]amino}-N-(5-phenyl-1,3,4-thiadiazol-2-yl)-4-(trifluoromethoxy)benzamide] was run?
A: ≥ 50 µM

Q: For COc1ccc(-c2ccc(C(=O)Nc3ccc(OC)c(NC(=O)CN4CCOCC4)c3)s2)cc1 [Example 35, N-{4-methoxy-3-[(morpholin-4-ylacetyl)amino]phenyl}-5-(4-methoxyphenyl)thiophene-2-carboxamide], which IC50 ([2]; Homo sapiens, HEK293, 16 h) is on record?
A: ≥ 50 µM

Q: With CC(C(=O)Nc1cc(C(=O)Nc2ccc(-c3ccc(N)cc3)nc2)ccc1OC(F)(F)F)N1CCOCC1 (stereo not shown) [Example 111, N-[6-(4-aminophenyl)pyridin-3-yl]-3-{[2-(morpholin-4-yl)propanoyl]amino}-4-(trifluoromethoxy)benzamide] as the compound, how does the IC50 ([2]; Homo sapiens, HEK293, 16 h) read?
A: ≥ 50 µM

Q: For COCc1ccc(C(=O)Nc2nnc(-c3ccccc3)s2)cc1NC(=O)C1(N2CCN(C3CC3)CC2)CC1 [Example 44, 3-({[1-(4-cyclopropylpiperazin-1-yl)cyclopropyl]carbonyl}amino)-4-(methoxymethyl)-N-(5-phenyl-1,3,4-thiadiazol-2-yl)benzamide], which IC50 ([2]; Homo sapiens, HEK293, 16 h) is on record?
A: ≥ 50 µM

Q: Which IC50 ([2]; Homo sapiens, HEK293, 16 h) does the source give for O=C(Nc1ccc(-c2ccccc2F)nc1)c1ccc(OC2CC2)c(NC(=O)C2(N3CCN(C4CC4)CC3)CC2)c1 [Example 136, 4-(cyclopropyloxy)-3-({[1-(4-cyclopropylpiperazin-1-yl)cyclopropyl]carbonyl}amino)-N-[6-(2-fluorophenyl)pyridin-3-yl]benzamide] here?
A: ≥ 50 µM

Q: CC(=O)Nc1ccc(-c2ccc(NC(=O)c3ccc(OC(F)(F)F)c(NC(=O)C(C)N4CCOCC4)c3)cn2)cc1 (stereo not shown) [Example 113, N-[6-(4-acetamidophenyl)pyridin-3-yl]-3-{[2-(morpholin-4-yl)propanoyl]amino}-4-(trifluoromethoxy)benzamide] was tested. Which IC50 ([2]; Homo sapiens, HEK293, 16 h) did it give?
A: ≥ 50 µM

Q: O=C(CN1CCOCC1)Nc1cc(NC(=O)c2ccc(-c3cc(F)cc(F)c3)nc2)ccc1OC(F)(F)F [Example 27, 6-(3,5-difluorophenyl)-N-{3-[(morpholin-4-ylacetyl)amino]-4-(trifluoromethoxy)phenyl}nicotinamide] was tested. Which IC50 ([2]; Homo sapiens, HEK293, 16 h) did it give?
A: ≥ 50 µM

Q: O=C(Nc1ccc(-c2ccccc2)cn1)c1ccc(OC(F)(F)F)c(NC(=O)C2(N3CCOCC3)CC2)c1 [Example 95, 3-({[1-(morpholin-4-yl)cyclopropyl]carbonyl}amino)-N-(5-phenylpyridin-2-yl)-4-(trifluoromethoxy)benzamide] was tested. Which IC50 ([2]; Homo sapiens, HEK293, 16 h) did it give?
A: ≥ 50 µM

Q: With O=C(Nc1nnc(-c2ccccc2)s1)c1ccc(OC(F)(F)F)c(NC(=O)C2(N3CCN(C4CC4)CC3)CC2)c1 [Example 51, 3-({[1-(4-cyclopropylpiperazin-1-yl)cyclopropyl]carbonyl}amino)-N-(5-phenyl-1,3,4-thiadiazol-2-yl)-4-(trifluoromethoxy)benzamide] as the compound, how does the IC50 ([2]; Homo sapiens, HEK293, 16 h) read?
A: ≥ 50 µM

Q: For CN1CCN(C2(C(=O)Nc3cc(C(=O)Nc4nnc(-c5ccccc5)s4)ccc3CS(C)(=O)=O)CC2)CC1 [Example 49, 3-({[1-(4-methylpiperazin-1-yl)cyclopropyl]carbonyl}amino)-4-[(methylsulfonyl)methyl]-N-(5-phenyl-1,3,4-thiadiazol-2-yl)benzamide], which IC50 ([2]; Homo sapiens, HEK293, 16 h) is on record?
A: ≥ 50 µM

Reference: patent US10130633B2, “Compounds” (BAYER PHARMA AKTIENGESELLSCHAFT, priority 2013, dated 2018)
